Consider 46 compounds from article PMC4522185 (ChemistryOpen, 2015).

What is called IC50 is the point on the concentration scale where inhibition reaches its midpoint. Lower therefore signals higher potency. One may read the solubility as the dissolved amount per volume that the medium holds. A high value points to much dissolved substance. For orientation: share remaining means the share of the starting amount still present when the sample was taken. Read a low share remaining as more turnover.

In brackets after ≈: the same amount, converted by molar mass.

Data set [1] has as its target human 20S proteasome (chymotrypsin-like activity, with PA28 activator) (Homo sapiens, UniProt P28074). Kind of data set: fluorogenic suc-LLVY-AMC cleavage. The format is biochemical.
Data set [2] is described as follows: physchem. Conditions: pbs, pH 7.4, aqueous buffer.
The nature of data set [3]: physchem. The note with it: ch3cn+pbs (1+1), pH 7.4.
Data set [4] has as its target Mtb 20S open-gate proteasome (Mycobacterium tuberculosis, UniProt P9WHT9). Kind of data set: biochemical.
Data set [5] in a line: physchem. The note with it: ch3cn+pbs (1+1), pH 7.4. This is another data set of the same source.
A short description of data set [6]: physchem. Conditions: pbs, pH 7.4, aqueous buffer. The source holds these as a separate data set.

Sequence of human 20S proteasome (chymotrypsin-like activity, with PA28 activator) (P28074 60-263): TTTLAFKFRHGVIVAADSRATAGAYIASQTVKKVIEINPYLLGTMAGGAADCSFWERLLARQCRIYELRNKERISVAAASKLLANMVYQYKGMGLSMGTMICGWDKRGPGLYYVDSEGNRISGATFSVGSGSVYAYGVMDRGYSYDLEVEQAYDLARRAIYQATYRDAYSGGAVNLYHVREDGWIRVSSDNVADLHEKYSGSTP
Sequence of human 20S proteasome (chymotrypsin-like activity, with PA28 activator) (P25786 whole entry partner): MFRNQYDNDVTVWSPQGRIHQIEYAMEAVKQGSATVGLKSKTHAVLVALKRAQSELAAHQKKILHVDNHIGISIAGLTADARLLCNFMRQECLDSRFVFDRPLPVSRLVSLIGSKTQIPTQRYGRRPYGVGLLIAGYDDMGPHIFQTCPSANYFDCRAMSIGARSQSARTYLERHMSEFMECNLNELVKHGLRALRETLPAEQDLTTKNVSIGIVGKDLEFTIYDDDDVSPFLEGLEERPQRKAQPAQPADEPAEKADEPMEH
Sequence of Mtb 20S open-gate proteasome (P9WHT9 whole entry): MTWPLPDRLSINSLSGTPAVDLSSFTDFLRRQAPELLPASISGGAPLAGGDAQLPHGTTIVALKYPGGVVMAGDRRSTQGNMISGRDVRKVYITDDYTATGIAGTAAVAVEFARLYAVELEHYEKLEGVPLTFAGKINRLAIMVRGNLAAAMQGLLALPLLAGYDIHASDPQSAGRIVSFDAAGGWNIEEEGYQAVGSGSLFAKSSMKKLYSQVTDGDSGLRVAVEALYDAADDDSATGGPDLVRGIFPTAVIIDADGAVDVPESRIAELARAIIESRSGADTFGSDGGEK
Sequence of Mtb 20S open-gate proteasome (P9WHU1 whole entry partner): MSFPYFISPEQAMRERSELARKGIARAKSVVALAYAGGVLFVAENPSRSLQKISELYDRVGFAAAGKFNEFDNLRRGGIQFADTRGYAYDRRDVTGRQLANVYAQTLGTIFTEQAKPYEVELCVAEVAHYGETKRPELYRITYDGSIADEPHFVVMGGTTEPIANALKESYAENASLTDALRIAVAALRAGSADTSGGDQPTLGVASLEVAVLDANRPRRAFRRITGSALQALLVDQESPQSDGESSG

The compound `O=c1oc(-c2ccccc2)ns1` [compound 1, 5-Phenyl-1,3,4-oxathiazol-2-one] came in with an IC50 in data set [1] of 6.2 µM.
In turn, `O=c1oc(-c2cnccn2)ns1` [compound 2, 5-(Pyrazin-2-yl)-1,3,4-oxathiazol-2-one] displayed an IC50 in data set [1] of 4.5 µM.
Same read-out and setting: then `COc1cccc(-c2nsc(=O)o2)c1` [compound 3, 5-(3-Methoxyphenyl)-1,3,4-oxathiazol-2-one], with 15 µM; and `O=c1oc(-c2cccc(F)c2)ns1` [compound 4, 5-(3-Fluorophenyl)-1,3,4-oxathiazol-2-one], with 11 µM; and `O=c1oc(CCCl)ns1` [compound 5, 5-(2-Chloroethyl)-1,3,4-oxathiazol-2-one], with above 100 µM.
Still for that read-out and setting: then `O=c1oc(C2CC2)ns1` [compound 6, 5-Cyclopropyl-1,3,4-oxathiazol-2-one], with above 100 µM; and `CCCCCc1nsc(=O)o1` [compound 7, 5-Pentyl-1,3,4-oxathiazol-2-one], with above 100 µM; and `O=c1oc(CF)ns1` [compound 8, 5-(Fluoromethyl)-1,3,4-oxathiazol-2-one], with 1.4 µM.
On the same count and under the same terms, the same measure for `O=c1oc(Cc2ccccc2)ns1` [compound 9, 5-Benzyl-1,3,4-oxathiazol-2-one]: 1.9 µM.
As for `COc1cccc(Cc2nsc(=O)o2)c1` [compound 10, 5-(3-Methoxybenzyl)-1,3,4-oxathiazol-2-one], the IC50 in data set [1] is above 100 µM.
Regarding `O=Cc1ccc(OCc2nsc(=O)o2)cc1` [compound 11, 4-((2-Oxo-1,3,4-oxathiazol-5-yl)methoxy)benzaldehyde], the IC50 in data set [1] was above 100 µM.
Still for that read-out and setting: the same measure for `O=c1oc(Cc2cccc3ccccc23)ns1` [compound 12, 5-(Naphthalen-1-ylmethyl)-1,3,4-oxathiazol-2-one]: above 100 µM.
Regarding `O=c1oc(Cc2ccccc2C(F)(F)F)ns1` [compound 13, 5-(2-(Trifluoromethyl)benzyl)-1,3,4-oxathiazol-2-one], the IC50 in data set [1] amounted to 8.7 µM.
Compound `O=c1oc(C(O)c2ccccc2)ns1` (stereo not shown) [compound 14, 5-(Hydroxy(phenyl)methyl)-1,3,4-oxathiazol-2-one] displayed an IC50 in data set [1] of 20 µM.
Still for that read-out and setting: the same measure for `O=c1oc(CCc2ccccc2)ns1` [compound 15, 5-Phenethyl-1,3,4-oxathiazol-2-one]: 6.7 µM; for `CO[C@H](c1ccccc1)c1nsc(=O)o1` [compound 16, (R)-5-(Methoxy(phenyl)methyl)-1,3,4-oxathiazol-2-one]: 5.8 µM.
`O=c1oc(/C=C/c2ccc(C(F)(F)F)cc2)ns1` [compound 18, (E)-5-(4-(Trifluoromethyl)styryl)-1,3,4-oxathiazol-2-one] showed an IC50 in data set [1] above 100 µM. In data set [2], the solubility at 18 h was found to be 0.1 µM (≈ 0.0273 µg/mL).
`C=Cc1nsc(=O)o1` [compound 21, 5-Vinyl-1,3,4-oxathiazol-2-one] came in with a concentration for half-maximal inhibition (IC50) in data set [1] of 9.1 µM.
Compound `O=c1oc(/C=C/C(F)(F)F)ns1` [compound 22, (E)-5-(3,3,3-Trifluoroprop-1-en-1-yl)-1,3,4-oxathiazol-2-one] had an IC50 in data set [1] above 100 µM. The same compound gave a fraction remaining at 24 h, 50 µM in data set [3] of 79.9%. The same compound returned a solubility at 18 h in data set [2] of 44.1 µM (≈ 8.69 µg/mL).
Consider `O=c1oc(/C(=C/c2ccccc2)c2ccccc2)ns1` [compound 23, (E)-5-(1,2-Diphenylvinyl)-1,3,4-oxathiazol-2-one], for which the IC50 in data set [1] amounted to 14 µM.
`O=c1onc(-c2ccccc2)o1` [compound 24, 3-Phenyl-1,4,2-dioxazol-5-one]: the IC50 in data set [1] was above 100 µM. Moreover, the amount remaining at 24 h, 50 µM in data set [3] amounted to 8.5%. The compound further registered a solubility at 18 h in data set [2] of 7.6 µM (≈ 1.24 µg/mL).
On to `O=c1onc(/C=C/c2ccccc2)o1` [compound 25], for which the concentration in solution in data set [2] (solubility at 18 h) was 12.3 µM (≈ 2.33 µg/mL).
Consider `CC(C)c1ccc(/C=C/c2nsc(=O)o2)cc1` [compound 29, (E)-5-(4-Isopropylstyryl)-1,3,4-oxathiazol-2-one], for which the IC50 in data set [1] is 14.5 µM; in data set [4], 1.7 µM. In data set [5], this compound registered a share remaining at 24 h, 50 µM of 99.8%.
On to `Cc1ccc(/C=C/c2nsc(=O)o2)cc1` [compound 30, (E)-5-(4-Methylstyryl)-1,3,4-oxathiazol-2-one], for which the IC50 was above 100 µM in data set [1] and 1 µM in data set [4]. Moreover, the share remaining at 24 h, 50 µM in data set [5] is 96%.
Consider `CCc1ccc(/C=C/c2nsc(=O)o2)cc1` [compound 31, (E)-5-(4-Ethylstyryl)-1,3,4-oxathiazol-2-one], for which the IC50 in data set [1] was above 100 µM; in data set [4] it was 1.08 µM. In data set [5], this compound returned an amount remaining at 24 h, 50 µM of 98.2%.
As to `O=c1oc(/C=C/c2ccc(OC(F)(F)F)cc2)ns1` [compound 32, (E)-5-(4-(Trifluoromethoxy)styryl)-1,3,4-oxathiazol-2-one], the IC50 in data set [1] was above 100 µM; in data set [4], 0.78 µM. In data set [5], this compound had a fraction remaining at 24 h, 50 µM of 94.8%.
`CCOC(=O)c1ccc(/C=C/c2nsc(=O)o2)cc1` [compound 33, (E)-Ethyl 4-(2-(2-oxo-1,3,4-oxathiazol-5-yl)vinyl)benzoate]: the IC50 is above 100 µM in data set [1] and 0.475 µM in data set [4]. The compound also gave a share remaining at 24 h, 50 µM in data set [5] of 91.1%.
As for `O=C(c1ccccc1)c1ccc(/C=C/c2nsc(=O)o2)cc1` [compound 34, (E)-5-(4-Benzoylstyryl)-1,3,4-oxathiazol-2-one], the IC50 worked out at 87 µM in data set [1] and 1.19 µM in data set [4]. In addition, the fraction remaining at 24 h, 50 µM in data set [5] amounted to 96.1%.
For `COC(=O)c1ccc(/C=C/c2nsc(=O)o2)cc1` [compound 35, (E)-Methyl 4-(2-(2-oxo-1,3,4-oxathiazol-5-yl)vinyl)benzoate] the same measures were 27.5 µM, 0.415 µM and 97.3%.
On to `O=c1oc(/C=C/c2ccc([N+](=O)[O-])cc2)ns1` [compound 36, (E)-5-(4-Nitrostyryl)-1,3,4-oxathiazol-2-one], for which the results for the IC50 in data set [1] and in data set [4] were 26 µM and 1.4 µM, respectively. This compound registered an amount remaining at 24 h, 50 µM in data set [5] of 96.9%.
With `N#Cc1ccc(/C=C/c2nsc(=O)o2)cc1` [compound 37, (E)-4-(2-(2-Oxo-1,3,4-oxathiazol-5-yl)vinyl)benzonitrile], the IC50 in data set [1] is 41.5 µM; in data set [4], 0.495 µM. Besides, the share remaining at 24 h, 50 µM in data set [5] came to 95.4%.
On to `O=Cc1ccc(/C=C/c2nsc(=O)o2)cc1` [compound 38, (E)-4-(2-(2-Oxo-1,3,4-oxathiazol-5-yl)vinyl)benzaldehyde], for which the IC50 in data set [1] is 32.5 µM; in data set [4], 0.695 µM. Also, in data set [5], the amount remaining at 24 h, 50 µM came to 91.4%.
In the case of `O=c1oc(/C=C/c2ccc(Cl)cc2)ns1` [compound 39, (E)-5-(4-Chlorostyryl)-1,3,4-oxathiazol-2-one], the IC50 is above 100 µM in data set [1] and 0.565 µM in data set [4]. Besides, the share remaining at 24 h, 50 µM in data set [5] came to 98.2%.
For `O=c1oc(/C=C/c2cc(Cl)ccc2Cl)ns1` [compound 40, (E)-5-(2,5-Dichlorostyryl)-1,3,4-oxathiazol-2-one], in that order: 50 µM, 0.785 µM and 98.5%.
In the case of `Cc1cccc(/C=C/c2nsc(=O)o2)c1` [compound 41, (E)-5-(3-Methylstyryl)-1,3,4-oxathiazol-2-one], the IC50 stood at 39 µM in data set [1] and 1.6 µM in data set [4]. The share remaining at 24 h, 50 µM in data set [5] turned out to be 98.1%.
As to `CCc1cccc(/C=C/c2nsc(=O)o2)c1` [compound 42, (E)-5-(3-Ethylstyryl)-1,3,4-oxathiazol-2-one], the IC50 in data set [1] is 32.5 µM; in data set [4], 1.45 µM. Further, the fraction remaining at 24 h, 50 µM in data set [5] was found to be 96.4%.
For `O=c1oc(/C=C/c2cccc(OC(F)(F)F)c2)ns1` [compound 43, (E)-5-(3-(Trifluoromethoxy)styryl)-1,3,4-oxathiazol-2-one] the same measures were 39.5 µM, 1.8 µM and 96.2%.
Regarding `CCOC(=O)c1cccc(/C=C/c2nsc(=O)o2)c1` [compound 44, (E)-Ethyl 3-(2-(2-Oxo-1,3,4-oxathiazol-5-yl)vinyl)benzoate], the 50% inhibitory concentration (IC50) in data set [1] was above 100 µM; in data set [4], 9.9 µM. Moreover, the fraction remaining at 24 h, 50 µM in data set [5] was 96%.
In data set [1], `Cc1ccccc1/C=C/c1nsc(=O)o1` [compound 45, (E)-5-(2-Methylstyryl)-1,3,4-oxathiazol-2-one] registered an IC50 above 100 µM. Further, the fraction remaining at 24 h, 50 µM in data set [5] amounted to 94%.
Regarding `CCc1ccccc1/C=C/c1nsc(=O)o1` [compound 46, (E)-5-(2-Ethylstyryl)-1,3,4-oxathiazol-2-one], the IC50 in data set [1] was above 100 µM. Also, the fraction remaining at 24 h, 50 µM in data set [5] is 98%.
For `O=c1oc(/C=C/c2ccccc2OC(F)(F)F)ns1` [compound 47, (E)-5-(2-(Trifluoromethoxy)styryl)-1,3,4-oxathiazol-2-one] the same measures were above 100 µM and 95.7%.
For `CCOC(=O)c1ccccc1/C=C/c1nsc(=O)o1` [compound 48, (E)-Ethyl 2-(2-(2-Oxo-1,3,4-oxathiazol-5-yl)vinyl)benzoate], in that order: above 100 µM and 97.7%.
With `O=c1oc(/C=C/c2ccccn2)ns1` [compound 54, (E)-5-(2-(Pyridin-2-yl)vinyl)-1,3,4-oxathiazol-2-one], the solubility at 18 h in data set [6] is 64.6 µM (≈ 13.3 µg/mL).
Still for that read-out and setting: the same measure for `O=c1oc(/C=C/c2cccnc2)ns1` [compound 55, (E)-5-(2-(Pyridin-3-yl)vinyl)-1,3,4-oxathiazol-2-one]: 70.6 µM (≈ 14.6 µg/mL); for `O=c1nc2c(/C=C/c3nsc(=O)o3)cccn2s1` [compound 56, (E)-5-(2-(2-Oxo-2 H-[1,2,4]thiadiazolo[2,3-a]pyridin-8-yl)vinyl)-1,3,4-oxathiazol-2-one]: 2.4 µM (≈ 0.67 µg/mL).
In data set [1], `O=c1oc(/C=C/c2c[nH]c3ccccc23)ns1` [compound 57, 57] returned an IC50 of 5 µM. In data set [6], this compound displayed a solubility at 18 h of 4.1 µM (≈ 1 µg/mL).
